Data taken from patent publication US20160115540A1, “PRODRUGS AND DRUGS” (Biogen MA Inc., priority 2013, published 2016).
Where a name gives a salt, the structure may show the parent alone.

Tested on: brain
Test: Transcriptional profiling, chronic dosing, EAE mice: brain
Format: in vivo
From the text: EAE induction is generally performed by immunization with brain extracts, CNS proteins (such as myelin basic protein), or peptides from such protein emulsified in an adjuvant such as complete Freund's adjuvant, e.g., as described in Linker et al., Brain. 2011 March 134(Pt3): 678-92. […] FIG. 17 depicts exemplary immunophenotyping panels used to analyze various immune cell populations (e.g., T cells, T regulatory cells, NK cells, B cells, myeloid cells). […] The number of independent mice whose tissues were harvested for transcript profiling studies and whose data passed QC is shown in TABLE 15. Animals were exposed to CO2 and whole blood collected via cardiac puncture. Two 100 μl aliquots of whole blood were collected in 1.5 mL microcentrifuge tubes and snap frozen in liquid nitrogen. Peripheral (liver, spleen, kidney and jejunum) and CNS brain (cerebellum, hippocampus, striatum and cortex) tissues were harvested and snap frozen in liquid nitrogen, with special care taken to collect tissues of similar size and from the same location. All samples were stored at -80° C. until RNA extraction was conducted. For RNA preparation, frozen tissues were placed in 2 mL RNAse-free 96-well blocks with 1.5 mL QIAzol Lysis Reagent (QIAgen) and a 3.2 mm stainless steel bead (BioSpec Products, Bartlesville, Okla.). Tissues were disrupted for four cycles of 45 seconds in a Mini-Beadbeater (Biospec Products). RNA was extracted in chloroform and the aqueous phase was mixed with an equal volume of 70% ethanol. Extracted RNA was applied to RNeasy 96 plates and purified by the spin method according to the manufacturer's protocol (RNeasy 96 Universal Tissue Protocol, QIAgen, Hilden Germany). […] Washing and staining of the hybridized arrays were completed as described in the GeneChip Expression analysis technical manual for HT plate arrays using the Genechip® Array Station (Affymetrix, Santa Clara, Calif.) with modifications as described in […] et al. The processed GeneChip® plate arrays were scanned using GeneTitan scanner (Affymetrix, Santa Clara, Calif.). Affymetrix scans were subject to quality control (QC) measures. These tests included a visual inspection of the distribution of raw signal intensities and an assessment of RNA degradation, relative log expression (RLE), and normalized unscaled standard error (NUSE). All sample scans that passed these QC metrics were included in the analysis. All CEL files were subjected to GC-content-based Robust Multi-array Average (GCRMA) normalization (version 2.20.0) (Irizarry R A, et al. Nucleic Acids Res 2003; 31:e15; Li C, et al. Genome Biol 2001; 2:[…]0032). […] Stat Appl Genet Mol Biol 2004; 3:Article3). […] Springer Science+Business Media 2005). Changes in gene expression were studied by applying a linear modeling approach to fit gene expression levels according to the defined groups of samples (e.g. DMF-, MMF-, and Vehicle-treated animals) and Bayesian posterior error analysis as implemented by Smyth (Smyth G K. Stat Appl Genet Mol Biol 2004; 3:Article3). The comparisons considered included: DMF-vs-MMF, DMF-vs-Vehicle, MMF-vs-Vehicle, and Vehicle-vs-Naïve.

SMILES	Number of differentially expressed genes identified: Brain (100 mpk DMF-vs-90 mpk MMF, 7 h after last dosing)	Number of differentially expressed genes identified: Brain (100 mpk DMF-vs-90 mpk MMF, 12 h after last dosing)	Number of differentially expressed genes identified: Brain (100 mpk DMF-vs-Vehicle, 7 h after last dosing)	Number of differentially expressed genes identified: Brain (100 mpk DMF-vs-Vehicle, 12 h after last dosing)	Number of differentially expressed genes identified: Brain (90 mpk MMF-vs-Vehicle, 7 h after last dosing)	Number of differentially expressed genes identified: Brain (90 mpk MMF-vs-Vehicle, 12 h after last dosing)
COC(=O)/C=C/C(=O)OC [DMF, dimethyl fumarate]	31	0	6	0	–	–
COC(=O)/C=C/C(=O)O [MMF, monomethyl fumarate]	–	–	–	–	158	0
